Read-outs that look alike come from different tables or passages of the source.
Tests used:
T289C mAb = assay: Conjugation kinetics of x-maleimide-PEG-biotins with T289C mAb; format: physicochemical; settings: for Second order rate constant (k2): conjugation to T289C mAb
Method: x-Maleimide-PEG-biotins were conjugated to mAb (comprising a T289C mutation of the Fc) in several steps. […] Reduced mAb was transferred to a slide-a-lizer dialysis cassette (10K MWCO) and dialyzed against PBS, 1 mM EDTA, pH 7.2-7.8, 4° C. for 24 hr with several buffer changes. Reduced mAb was oxidized to reform internal disulfides by addition of dehydroascorbic acid (21 μL of 50 mM stock in DMSO, 1.1 μmol, 20 eq) followed by gentle mixing for 4 hr at room temperature. Oxidized mAb solution was adjusted to the desired pH by addition of 1M sodium phosphate (monobasic for pH 5.5, dibasic for pH 8.6, or a stock adjusted to pH 7.4) to a final phosphate concentration of 100 mM and mAb concentration of 1.3 mg/mL. Next, 1.15 mL of mAb solution (1.5 mg, 10 nmol, 1 eq) was aliquoted into a vial followed by addition of x-maleimide-PEG-biotin stock solution (2 μL of a 10 mM stock solution in DMAc, 20 nmol, 2 eq). The reaction mixture was briefly vortexed and further incubated for the desired amount of time followed by addition of N-acetly cysteine (10 μL of a 100 mM solution in water, 1 μmol, 100 eq) and further incubation for 15 minutes to quench unreacted maleimide. All conjugation reactions were performed at room temperature (22° C.) under ambient atmosphere. Note that 2 eq x-maleimide-PEG-biotin relative to mAb=1 eq x-maleimide-PEG-biotin relative to free cysteine contained in the mAb. This general procedure was modified as needed to achieve desired reaction stoichiometry (i.e. different maleimide:mAb feeds).
ADC samples were analyzed using an Agilent 6520B Q-TOF mass spectrometer equipped with a RP-HPLC column (Agilent Poroshell 300SB-C3; 5 um, 2.1 mm×75 mm; Part#660750-909). High-performance liquid chromatography (HPLC) parameters were as follows: flow rate, 0.4 ml/min; mobile phase A was 0.1% (v/v) formic acid in HPLC-grade H2O, and mobile phase B was 0.1% (v/v) formic acid in acetonitrile. The column was equilibrated in 90% A/10% B, which was also used to desalt the ADC samples, followed by elution in 40% A/60% B. Mass spec data were collected for 100-3000 m/z, positive polarity, a gas temperature of 350° C., a nebulizer pressure of 48 lb/in^2, and a capillary voltage of 5,000 V. Data were analyzed using vendor-supplied (Agilent v.B.04.00) MassHunter Qualitative Analysis software and peak intensities from deconvoluted spectra were used to derive the relative proportion of reactants and products; and reaction kinetics.
Half-lives were calculated from the derived rate constants using Equation 4 for pseudo-first order reactions (hydrolysis and deconjugation) and Equation 5 for second-order reactions (conjugation): […]
Conjugation data were analyzed in units of molar concentration to determine kinetic constants. Second order rate constants were determined from the slopes of curves generated from plotting 1/[SH] versus time and linear regression analysis.

[1] = Maleimide hydrolysis kinetics (pre-incubation in buffer, then reaction with T289C mAb); format: physicochemical; settings: for half-life at 1 mM: sodium phosphate buffer, read-out: Hydrolysis T1/2 (maleimide) (converted)
Method: x-Maleimide-PEG-biotins were pre-incubated in buffer solutions of different pH to assess their stability and thiol conjugation efficiency over time. This assay indirectly monitors maleimide hydrolysis because hydrolyzed maleimides are not reactive towards thiols. Antibody bearing the T289C FC mutation was reduced and oxidized as described above and adjusted to 1.5 mg/mL in PBS containing 50 mM sodium phosphate pH 7.4. Maleimide solutions were prepared in buffer (100 mM sodium phosphate pH 5.5, 7.4, 8.6) by combining 20 μL x-maleimide-PEG-biotin solution (10 mM solution in DMAc) with 180 μL buffer at the desired pH (final x-maleimide-PEG-biotin concentration=1 mM) and incubated at 22° C. for determined time intervals prior to reaction with mAb. For conjugation reactions 267 μL mAb (1.5 mg/mL, 2.7 nmol, 1 eq) was combined with 5.3 μL buffer-incubated x-maleimide-PEG-biotin solution (5.4 nmol, 2 eq). […] The conjugation reaction proceeded at 22° C. for 1.5 hr at pH 7.4. After reaction samples were reduced with DTT at room temperature for 5 min and analyzed by mass spectrometry. Percent conjugation was calculated using equation 1.
Maleimide hydrolysis data were also analyzed in units of molar concentration to determine kinetic constants. Pseudo 1st order rate constants were determined from the slopes of curves generated from plotting ln [maleimide] versus time and linear regression analysis.

[2] = pH 7.0; cited from earlier work
[3] = pH 7.0; cited from earlier work; remark: listed apart in the source
[4] = cited from earlier work
[5] = BME challenge assay: sensitivity of PEG-biotin T289C mAb conjugates to thiol exchange in buffer containing thiols; format: physicochemical; settings: pH 7.2, 37° C.
Method: Biotin-mAb conjugates were incubated in aqueous buffer containing β-mercaptoethanol (BME) to challenge the thiosuccinimide linkage against deconjugation. x-Maleimide-PEG-biotins were conjugated to mAb containing the T289C mutation as described above with minor modification. Conjugation reactions were performed at 1 equivalent x-PEG-maleimide:thiol for 15 min at 22° C. followed immediately by dilution to 0.2 mg/mL (1.33 μM mAb) with 1×PBS pH 7.2 containing 0.5 mM EDTA. The N-acetyl cysteine quenching step was omitted. For BME-containing samples, BME was added to a final concentration of 1% v/v (143 mM). Samples were further incubated at 37° C. under ambient atmosphere without stirring. Aliquots were removed at various time points, sterile filtered, reduced with DTT and then analyzed by LC/MS. Percent conjugated mAb and thiosuccinimide hydrolysis were determined from peak heights of mass spectra using Equation 1 and Equation 2, respectively. Deconjugated mAb and thiosuccinimide hydrolysis data were plotted as ln [concentration] vs. time (s) to obtain the pseudo-first order rate constants from the slope of the bestfit line.

[6] = Stability of mAb-biotin conjugates in the presence of free thiol (BME) after mild hydrolysis; format: physicochemical; settings: pH 7.2, 37° C.
Method: Biotin-mAb conjugates were incubated in aqueous buffer containing β-mercaptoethanol (BME) to challenge the thiosuccinimide linkage against deconjugation. In this experiment, thiosuccinimide conjugates were subjected to a brief incubation at mildly basic conditions to facilitate thiosuccinimide hydrolysis before the stability challenge. x-Maleimide-PEG-biotins were conjugated to mAb containing the T289C mutation as described above with minor modification. Conjugation reactions were performed at 1 equivalent x-PEG-maleimide:thiol for 15 min at 22° C. followed quenching with N-acetyl cysteine (100 eq rel. to mAb) and further reaction for 5 minutes. Reaction mixtures were adjusted to pH 8.6 by addition of 10% v/v sodium phosphate (1M, dibasic) and then incubated at 37° C. for 1 hr. Reactions were then dialyzed against PBS (pH 7.2) containing 0.5 mM EDTA for 24 hr at 4° C. After dialysis, mAb concentrations were confirmed by A280 measurement (NanoDrop) and samples were diluted to 0.2 mg/mL (1.33 μM mAb) with 1×PBS pH 7.2 containing 0.5 mM EDTA. For BME-containing samples, BME was added to a final concentration of 1% v/v (143 mM). […] Aliquots were removed at various time points, sterile filtered, reduced with DTT and then analyzed by LC/MS. Percent conjugated mAb and thiosuccinimide hydrolysis was determined from peak heights of mass spectra using Equation 1 and Equation 2, respectively. […]

[7] = Thiosuccinimide hydrolysis kinetics for PEG-BCN conjugates; format: physicochemical; settings: mAb-PEG-BCN conjugates at T289C, pH 7.2, 22° C.
Method: x-Maleimide-PEG-BCN-mAb conjugates were incubated in buffer solutions and monitored by LC/MS over time to observe thiosuccinimide hydrolysis. Conjugated T289C mAbs were diluted to 0.22 mg/mL with 1×PBS containing 0.5 mM EDTA, pH 7.2 and then dithiothreitol was added (0.5 M stock in water) to achieve a final concentration of 42 mM. Samples were placed into the LC/MS autosampler at 22° C. and injected periodically. Thiosuccinimide hydrolysis was confirmed by addition of 18 amu to the mAb conjugate peak in the mass spectrum. Semi-quantitative analysis of hydrolysis was performed using peak intensities in deconvoluted mass spectra and equation 3, which includes background subtraction using the T=0 measurement. Data was then converted into loss of thiosuccinimide (M) over time and plotted as ln [thiosuccinimide] vs seconds. The slope of the best fit line yielded the pseudo first-order rate constant for thiosuccinimide hydrolysis.

[8] = Reactivity of mAb-BCN conjugate with AC4GlcNAz after storage; format: physicochemical
Method: N-phenyl-maleimide-PEG-BCN-mAb conjugate (100 μL of 1.3, mg/mL solution in PBS with 0.5 mM EDTA, 0.87 nmol) was combined with AC4GlcNAz (1 μL of 500 mM stock in DMSO, 500 nmol). The reaction solution was incubated at room temperature without stirring for 1 hr at 22° C. For long-term reactivity studies, mAb-BCN conjugate was stored at 4° C. in PBS with 0.5 mM EDTA, pH 7.2 and aliquots were removed and reacted with AC4GlcNAz as described above. Conjugates were analyzed by reduced glycosylated mass spectrometry and conjugation efficiency was determined using equation 1.

Row | Compound | Psuedo first order rate constant (kobs), maleimide hydrolysis ([1]; pH 7.4, 22° C.) | Psuedo first order rate constant (kobs), maleimide hydrolysis ([1]; pH 8.6, 22° C.) | half-life at 1 mM ([1]; pH 7.4, 22° C.) | half-life at 1 mM ([1]; pH 8.6, 22° C.) | Second order rate constant (k2) (T289C mAb; pH 5.5, 22° C.) | Second order rate constant (k2) (T289C mAb; pH 7.4, 22° C.) | Second order rate constant (k2) (T289C mAb; pH 8.6, 22° C.) | also measured
1 | 2-fluoro-5-maleimidophenyl-PEG7-biotin [F-phenyl maleimide-PEG-biotin] | – | – | – | – | – | – | – | thiol conjugation is complete in (T289C mAb; pH 8.6): 15 s
2 | O=C(CCCCC1SCC2NC(=O)NC21)NCCOCCOCCOCCOCCOCCOCCOCCNC(=O)CCN1C(=O)C=CC1=O (centres unmarked) [Alkyl maleimide-PEG-biotin, maleimidoproprionyl-PEG7-biotin, reference compound] | 2.3e-05 s⁻¹ | 0.0002 s⁻¹ | 7.7 h | 1 h | 13 M⁻¹ s⁻¹ | 500 M⁻¹ s⁻¹ | ~28000 M⁻¹ s⁻¹ | –
3 | O=C(CCCCC1SCC2NC(=O)NC21)NCCOCCOCCOCCOCCOCCOCCOCCNC(=O)c1cc(N2C(=O)C=CC2=O)ccc1F (centres unmarked) [F-phenyl maleimide-PEG-biotin, 2-fluoro-5-maleimidophenyl-PEG7-biotin] | 0.00017 s⁻¹ | 0.0019 s⁻¹ | 1.1 h | 0.1 h | 55.4 M⁻¹ s⁻¹ | 4500 M⁻¹ s⁻¹ | ~39000 M⁻¹ s⁻¹ | –
4 | CCN1C(=O)C=CC1=O [N-ethyl maleimide] | – | – | – | – | – | – | – | k2, reaction with cysteine [2]: 1620 M⁻¹ s⁻¹; k2, reaction with β-mercaptoethanol [3]: 710 M⁻¹ s⁻¹
5 | O=C1C=CC(=O)N1c1ccccc1 [N-phenyl maleimide] | – | – | – | – | – | – | – | kobs, hydrolysis ([4]; pH 7.6, 25° C.): 7e-05 s⁻¹
6 | O=C(CCCCC1SCC2NC(=O)NC21)NCCOCCOCCOCCOCCOCCOCCOCCNC(=O)Cc1ccc(N2C(=O)C=CC2=O)cc1 (centres unmarked) [Phenyl maleimide-PEG-biotin, maleimidophenylacetyl-PEG7-biotin] | 8.5e-05 s⁻¹ | 0.00076 s⁻¹ | 2.3 h | 0.3 h | 23.8 M⁻¹ s⁻¹ | 1300 M⁻¹ s⁻¹ | ~34000 M⁻¹ s⁻¹ | –
7 | O=C1C=CC(=O)N1 [maleimide] | – | – | – | – | – | – | – | kobs, hydrolysis ([4]; pH 8.38, 30° C.): 0.000151 s⁻¹
8 | N-fluorophenyl thiosuccinimide | – | – | – | – | – | – | – | Max deconjugation + BME ([5]; 1% v/v BME): 10%; Max deconjugation − BME ([5]; without BME): None; Max deconjugation + BME ([6]; 1% v/v BME): None; Max deconjugation − BME ([6]; without BME): None
9 | Phenyl thiosuccinimide | – | – | – | – | – | – | – | Psuedo first order rate constant (kobs), thiosuccinimide hydrolysis [7]: 1.9e-05 s⁻¹; Azide conjugation (BCN reactivity) ([8]; 1 day storage at 4° C.): quantitative; Azide conjugation (BCN reactivity) ([8]; 4 days storage at 4° C.): quantitative; Azide conjugation (BCN reactivity) ([8]; 7 days storage at 4° C.): quantitative; Azide conjugation (BCN reactivity) ([8]; 10 days storage at 4° C.): quantitative; Azide conjugation (BCN reactivity) ([8]; 15 days storage at 4° C.): quantitative; Azide conjugation (BCN reactivity) ([8]; 21 days storage at 4° C.): quantitative; time without loss of BCN reactivity ([8]; after conjugation and storage at 4° C.): > 21 days

Source: patent publication US20170304460A1, “METHOD OF CONJUGATING A POLYPEPTIDE” (MedImmune, LLC, priority 2014, published 2017)
